Assay results taken from patent publication US8933130B2, “Treatment of vasomotor symptoms with selective estrogen receptor modulators” (Radius Health, Inc., priority 2006, dated 2015).

What was measured:
[1] = test system: morphine-addicted ovariectomized rats; assay: Rodent model of hot flashes: tail skin temperature change after naloxone in morphine-addicted ovariectomized rats; type: in vivo, rat; settings: for Mean Tail Skin Temp.: tail skin temperature change after naloxone, ovariectomized rats, vehicle 5.6° C.
Procedure: The SERM, (R)-6-{2-{Ethyl[4-(2-ethylaminoethyl)benzyl]amino}-4-methoxyphenyl}-5,6,7,8-tetrahydronaphthalen-2-ol (“SERM A”), was evaluated for its ability to modulate vasomotor activity in a rodent model of hot flashes. (Merchenthaler, Maturitas, 1998 30:307-316). Briefly, ovariectomized adult rats were implanted with slow release morphine sulfate pellets on days 5 and 6 post-ovariectomy. Beginning at 4 days post-ovariectomy, once-daily treatment was initiated with a positive control, ethynyl estradiol (0.3 mg/kg), SERM A (1 and 10 mg/kg) or vehicle (95% corn oil, 5% DMSO by volume), delivered by subcutaneous injection. Treatment with the test agents was continued daily until the end of the study. On day 10, probes capable of continuously monitoring temperature were applied to the tail skin surface of the treated rats. The rats were then treated with naloxone, a morphine antagonist, and the change in skin temperature recorded for a period of 60 minutes.

[2] = test system: 19-day old Sprague-Dawley rats (uteri); assay: Antagonism of estradiol-mediated uterine stimulation: uterine wet weight in 19-day old rats; type: in vivo, rat; settings: SERM A 10, 3, 1, 0.3, 0.1, 0.03, 0.01 mg/kg combined with estradiol 0.01 mg/kg, s.c. once daily for three days; FIG. 3
Procedure: (§1) 19-day old Sprague-Dawley rats were treated with either vehicle (95% corn oil/5% DMSO), estradiol (0.01 mg/kg), or a combination of estradiol (0.01 mg/kg) and SERM A (10, 3, 1, 0.3, 0.1, 0.03, 0.01 mg/kg). The rats were dosed once daily by subcutaneous injection for three consecutive days. 24 hours after the last dose, the rats were euthanized, uteri were harvested and their wet weight recorded.

[3] = test system: 19-day old Sprague-Dawley rats (uteri); settings: rat, in vivo
Procedure: as §1, with “mg/kg), raloxifene (10 mg/kg), tamoxifen (1 mg/kg)” for “mg/kg),”, “or” for “or a combination of estradiol (0.01 mg/kg) and”, “(100, 30, 10,” for “(10,”, “or 0.3” for “0.3, 0.1, 0.03, 0.01”

uterine stimulation at doses effective at modulating vasomotor response [3]	Structure (SMILES)	increase in skin temperature after naloxone treatment, compared to vehicle ([1]; 0.3 mg/kg s.c. once daily)	Mean Tail Skin Temp. ([1]; 0.3 mg/kg once daily s.c.)	estradiol-mediated increase in uterine weight [2]	increase in skin temperature after naloxone treatment, compared to vehicle ([1]; 0.1 and 0.01 mg/kg)	increase in skin temperature after naloxone treatment, compared to vehicle ([1]; 1 or 10 mg/kg s.c. once daily)	elevation of tail skin temperature associated with morphine addiction withdrawal ([1]; morphine-addicted ovariectomized rats, FIG. 1)	activity on reducing tail skin temperature increase, compared with positive control ethynyl estradiol ([1]; statistical analysis, SERM A 1 and 10 mg/kg vs ethynyl estradiol 0.3 mg/kg)	Mean Tail Skin Temp. ([1]; 1 mg/kg once daily s.c.)	Mean Tail Skin Temp. ([1]; 10 mg/kg once daily s.c.)
	C#C[C@]1(O)CC[C@H]2[C@@H]3CCc4cc(O)ccc4[C@H]3CC[C@@]21C [Ethynyl estradiol, ethynyl estradiol, reference compound]	significantly reduced the increase in skin temperature	1.2 °C							
lack of uterine stimulation	CCNCCc1ccc(CN(CC)c2cc(OC)ccc2[C@@H]2CCc3cc(O)ccc3C2)cc1 [SERM A, (R)-6-{2-{Ethyl[4-(2-ethylaminoethyl)benzyl]amino}-4-methoxyphenyl}-5,6,7,8-tetrahydronaphthalen-2-ol]			decreased the estradiol-mediated increase in a dosage dependent manner	did not significantly reduce the increase in skin temperature	significantly reduced the increase in skin temperature	suppressing the elevation of tail skin temperature	no significant difference	2.1 °C	2.0 °C
